Experimental data reported in the NIST ThermoML archive (doi:10.1021/acs.jced.5b00112).
Numbers after ± are expanded uncertainties.

Experiment: wn = mass fraction of the nth substance listed
Conditions: 348 K, 101 kPa, Liquid, Pycnometric method

Row | Compound | mass density (w1 = 0.7426) [kg/m3] | mass density (w1 = 0.5348) [kg/m3]
1 | [Br-].[Br-].[Ca+2] [calcium bromide] + O | 2062.6 ± 3.5 | 
2 | [Br-].[Br-].[Mg+2] [magnesium bromide (MgBr2)] + O |  | 1674.1 ± 1.8
